The values below come from patent publication US3944498A, “Germicidal detergent containing a thienyliodonium salt” (The Dow Chemical Company, priority 1973, dated 1976).

The structures appear in SMILES notation. Read-outs that look alike come from different tables or passages of the source.

Data set [1] relates to S. typhosa. Nature of the data set: Agar plate kill test with Ivory soap, S. typhosa. The format is cell-based. The following applies: 48 h, read-out: Percent Kill of S. Typhosa. As for the experimental part: (§1) Phenyl-2-thienyliodonium chloride, 2,2'-bisthienyliodonium chloride, and, for comparative purposes, diphenyliodonium chloride are individually dispersed in Ivory soap to provide concentrates containing 1 part by weight of iodonium salt to 50 parts by weight of soap. The soap concentrates are serially dispersed and serially diluted with liquid nutrient agar at 42°C. to prepare culture media containing various concentrations of one of the iodonium salts. The culture media are uniformly inoculated with S. aureus and plated in petri dishes. The inoculation is carried out from broth cultures of the named organism containing about 5×10^8 organisms per milliliter in the proportion of one-tenth milliliter of bacterial culture per 20 milliliters of cultur medium containing each test compound. In a check operation, nutrient agar containing the same amount of Ivory soap is similarly inoculated with the same organism. After two days' incubation at 37°C., the plates are examined for microbial growth.
The procedure described above is again repeated in a series of tests wherein the culture media are inoculated individually with the organism S. typhosa and wherein the culture media contain varying concentrations of one of the iodonium salts, as set forth in following Table II.

The test system of data set [2] is A. aerogenes. Nature of the data set: Agar plate kill test with Ivory soap, A. aerogenes. The class given is cell-based. The following applies: Klebsiella aerogenes, 48 h, Ivory soap, read-out: Percent Kill of A. aerogenes. As for the experimental part:
as §1
The procedure described above is repeated with varying concentrations of 4-chlorophenyl-2-thienyliodonium chloride, 3,4-dichlorophenyl-2-thienyliodonium chloride, and for comparative purposes bis(4-chlorophenyl)iodonium chloride, phenyl-4-chlorophenyliodonium chloride and bis(2,4-dichlorophenyl)iodoniumchloride in a series of tests wherein the culture media are inoculated individually with the organism A. aerogenes.
The procedure described above is once again repeated with each of 2,2'-bisthienyliodonium chloride, phenyl-2-thienyliodonium chloride, 4-bromophenyl-2-thienyliodonium chloride, bis(4-bromophenyl)iodonium chloride and bis(4-bromophenyl)iodonium bromide in a series of tests wherein the culture media are inoculated individually with the organism A. aerogenes.

Data set [3] concerns S. aureus. The data set is described as follows: Agar plate kill test with Ivory soap, S. aureus. The format is cell-based. The following applies: 2 days, 37°C. How it is done:
as §1

Data set [4] relates to S. typhosa. The data set is described as follows: Agar dilution MIC in absence of soap, S. typhosa. The class given is cell-based. The following applies: read-out: Minimum growth inhibitory concentration, S. typhosa. How it is done: (§2) The growth-inhibitory activity of the below-indicated compounds against some microorganisms most relevant to the human skin was determined by standard agar dilution techniques to provide the data given in following Table 1.
(§3) In Table 1, the first column gives the chemical structures of the test compounds, while the additional columns give the names of the test organisms and the minimum inhibitory concentration in parts per million (p.p.m.) of the compounds listed for 100% growth inhibition against the particular microorganisms indicated. […] For each p.p.m. of test compound, 50 p.p.m. of Ivory soap was also present in the culture medium for part A of Table 1, while in part B of Table 1, the culture medium was free of any additive other than the test compound. The data for compounds 13 through 16 of part B of Table 1 were taken from Cannon U.S. Pat. No. 3,207,660 while those for compounds 17 and 18 were taken from trade literature.

Data set [5] concerns P. aeruginosa. The data set is described as follows: Agar dilution MIC in absence of soap, P. aeruginosa. The format is cell-based. The following applies: Pseudomonas aeruginosa; read-out: Minimum growth inhibitory concentration, P. aeruginosa. How it is done:
as §2, §3
In general terms: Agar dilution tests growth on a series of plates holding different concentrations.

For data set [6], the system named is S. aureus. Nature of the data set: Agar dilution MIC in absence of soap, S. aureus. The class given is cell-based. Particulars: Staphylococcus aureus; read-out: Minimum growth inhibitory concentration, S. aureus. As for the experimental part: as §2, §3
For data set [7], the system named is S. aureus. Particulars: absence of soap; 13-16 from Cannon U.S. Pat. No. 3,207,660, 17-18 from trade literature; cited from earlier work.
Data set [8] has as its system P. aeruginosa. The following applies: absence of soap, 13-16 from Cannon U.S. Pat. No. 3,207,660, 17-18 from trade literature, cited from earlier work.
For data set [9], the system named is S. typhosa. The following applies: absence of soap; 17-18 from trade literature; cited from earlier work.
For data set [10], the system named is mice. Particulars: 12-15 from U.S. Pat. No. 3,207,660, 17, 18 from trade literature, cited from earlier work.

As for `c1csc([I+]c2cccs2)c1` [2,2'-bisthienyliodonium chloride], the killing at 5 ppm in data set [1] is 100%; in data set [2] (5 p.p.m.), 100%; in data set [3] (Staphylococcus aureus, 48 h, 5 p.p.m., read-out: percent kill of S. aureus), 100%.

As to `COc1ccc([I+]c2cccc(C(F)(F)F)c2)cc1` [Compound 11 (Table 1)], the MIC amounted to 100 µg/mL in data set [4], 500 µg/mL in data set [5] and 10 µg/mL in data set [6].

Take `FC(F)(F)c1cccc([I+]c2cccs2)c1` [Compound 12 (Table 1)]: the MIC in data set [4] was 10 µg/mL; in data set [5] it was 50 µg/mL; in data set [6], under 1 µg/mL.

`Oc1cc(Cl)ccc1Oc1ccc(Cl)cc1Cl` [Irgasan]: the “Minimum growth inhibitory concentration, S. aureus” value in [7] was 1 ppm. Besides, the “Minimum growth inhibitory concentration, P. aeruginosa” value is listed as “more than 300 ppm” in data set [8] and over 300 ppm in [8] (listed as Compound 18 (Table 1)). The “Minimum growth inhibitory concentration, S. typhosa” value in [9] is 1 ppm. For the same molecule, the “Oral LD50 (mice)” value was 4,000 mg/kg in data set [10] and 4000 mg/kg in data set [10] (listed as Compound 17 (Table 2)).

Turning to `[Cl-].c1ccc([I+]c2ccccc2)cc1` [diphenyliodonium chloride, reference compound], the killing at 500 ppm in data set [1] (500 p.p.m., Ivory soap) turned out to be 0%. Further, in [3] (500 p.p.m.), the “growth of S. aureus” value is “heavy uniform growth”.

Regarding `c1ccc([I+]c2cccs2)cc1` [phenyl-2-thienyliodonium chloride, Phenyl-2-thienyliodonium chloride], the killing at […] in data set [1] stood at 100%; in [2] (2.5 p.p.m.) it was 100%; in [3] (Staphylococcus aureus, 48 h, 2.5 p.p.m., read-out: percent kill of S. aureus), 100%.
